The source of these data is patent publication US12410163B2, “Compounds as GLP-IR agonists” (Terns Pharmaceuticals, Inc., priority 2022, dated 2025).

The nature of the series: Passive permeability and efflux ratio (Caco-2). Type of series: in vitro ADME. The conditions noted are these: human; for efflux ratio at 120 min, 5 μM: pH 7.4, Caco-2, efflux ratio = Papp (B-to-A)/Papp (A-to-B), read-out: ER; for Papp A→B at 120 min, 5 μM: Caco-2, 5 μM, pH 7.4, 120 minutes. The procedure: Caco-2 cells (clone C2BBe1) are obtained, e.g., from American Type Culture Collection (Manassas, VA). Cell monolayers are grown to confluence on collagen-coated, microporous membranes in 12-well assay plates. The permeability assay buffer is Hanks' balanced salt solution containing 10 mM HEPES and 15 mM glucose at a pH of 7.4. The buffer in the receiver chamber also contains 1% bovine serum albumin. The dosing solution concentration is 5 μM of test article in the assay buffer. Cell monolayers are dosed on the apical side (A-to-B) or basolateral side (B-to-A) and incubated at 37° C. with 5% CO2 in a humidified incubator. Samples are taken from the donor and receiver chambers at 120 minutes. Each determination is performed in duplicate. The flux of lucifer yellow is also measured post-experimentally for each monolayer to ensure no damage is inflicted to the cell monolayers during the flux period. All samples are assayed by LC-MS/MS using electrospray ionization. The apparent permeability (Papp) and percent recovery were calculated as follows: Papp=(dCr/dt)×Vr/(A×CA) (1) Percent Recovery=100×((Vr×Cr^final)+(Vd×Cd^final))/(Vd×CN) (2), where, dCr/dt is the slope of the cumulative receiver concentration versus time in μM s^−1; Vr is the volume of the receiver compartment in cm^3; Vd is the volume of the donor compartment in cm^3; A is the area of the insert (1.13 cm^2 for 12-well); CA is the average of the nominal dosing concentration and the measured 120-minute donor concentration in μM; CN is the nominal concentration of the dosing solution in μM; Cr^final is the cumulative receiver concentration in μM at the end of the incubation period; Cd^final is the concentration of the donor in μM at the end of the incubation period. Efflux ratio (ER) is defined as Papp (B-to-A)/Papp (A-to-B). Rat Pharmacokinetics
Caco-2 cells (clone C2BBe1) were obtained from American Type Culture Collection (Manassas, VA). Cell monolayers were grown to confluence on collagen-coated, microporous membranes in 12-well assay plates. Details of the plates and their certification are shown below. The permeability assay buffer was Hanks' balanced salt solution containing 10 mM HEPES and 15 mM glucose at a pH of 7.4. The buffer in the receiver chamber also contained 1% bovine serum albumin. The dosing solution concentration was 5 μM of test article in the assay buffer. Cell monolayers were dosed on the apical side (A-to-B) or basolateral side (B-to-A) and incubated at 37° C. with 5% CO2 in a humidified incubator. Samples were taken from the donor and receiver chambers at 120 minutes. Each determination was performed in duplicate. The flux of lucifer yellow was also measured post-experimentally for each monolayer to ensure no damage was inflicted to the cell monolayers during the flux period. All samples were assayed by LC-MS/MS using electrospray ionization. The apparent permeability (Papp) and percent recovery were calculated as follows: Papp=(dCr/dt)×Vr/(A×CA) (1) Percent Recovery=100×((Vr×Cr^final)+(Vd×Cd^final))/(Vd×CN) (2), where, dCr/dt is the slope of the cumulative receiver concentration versus time in μM s^−1; Vr is the volume of the receiver compartment in cm^3; Vd is the volume of the donor compartment in cm^3; A is the area of the insert (1.13 cm^2 for 12-well); CA is the average of the nominal dosing concentration and the measured 120-minute donor concentration in μM; CN is the nominal concentration of the dosing solution in μM; Cr^final is the cumulative receiver concentration in μM at the end of the incubation period; Cd^final is the concentration of the donor in μM at the end of the incubation period. Efflux ratio (ER) is defined as Papp (B-to-A)/Papp (A-to-B).

Consider `N#Cc1ccc(COc2cccc(N3CCN(Cc4nc5ccc(C(=O)O)cc5n4Cc4cncs4)[C@@H]4C[C@@H]43)n2)c(F)c1` (single isomer, unassigned) [Compound 1, 2-((5-(6-((4-cyano-2-fluorobenzyl)oxy)pyridin-2-yl)-2,5-diazabicyclo[4.1.0]heptan-2-yl)methyl)-1-(thiazol-5-ylmethyl)-1H-benzo[d]imidazole-6-carboxylic Acid], for which the efflux ratio at 120 min, 5 μM worked out at 2.51 and the apical-to-basolateral permeability (Papp A→B) (commonly how fast a substance crosses the layer from the apical side) at 120 min, 5 μM came to 15 ×10⁻⁶ cm/s.
On the same counts, the results for `N#Cc1ccc(COc2cccc([C@@H]3CCN(Cc4nc5ccc(C(=O)O)cc5n4Cc4cncs4)[C@@H]4C[C@@H]43)n2)c(F)c1` (single isomer, unassigned) [Compound 5, 2-((5-(6-((4-Cyano-2-fluorobenzyl)oxy)pyridin-2-yl)-2-azabicyclo[4.1.0]heptan-2-yl)methyl)-1-(thiazol-5-ylmethyl)-1H-benzo[d]imidazole-6-carboxylic Acid] are 1.71 and 27.9 ×10⁻⁶ cm/s.
On the same counts, the results for `CC1(c2ccc(C#N)cc2F)Oc2cccc(C3CCN(Cc4nc5ccc(C(=O)O)cc5n4Cc4cncs4)CC3)c2O1` (centres unmarked) [Compound 18] are 1.31 and 16.8 ×10⁻⁶ cm/s.
In the same order, the values of `CC1(c2ccc(C#N)cc2F)Oc2cccc(N3CCN(Cc4nc5ccc(C(=O)O)cc5n4CC4(C#N)CC4)C4CC43)c2O1` (centres unmarked) [Compound 40, 2-((5-(2-(4-Cyano-2-fluorophenyl)-2-methylbenzo[d][1,3]dioxol-4-yl)-2,5-diazabicyclo[4.1.0]heptan-2-yl)methyl)-1-((1-cyanocyclopropyl)methyl)-1H-benzo[d]imidazole-6-carboxylic Acid] are 2.27 and 17.5 ×10⁻⁶ cm/s.
